Key:
Conditions in all cases: exposure time: 90 min
[1] = test system: 1309 (donor line of iPSC-derived cardiomyocytes); assay: POD (EC05) for increase in Ca2+ transient decay-to-rise ratio (QT prolongation) vs vehicle; higher = less potent (higher point of departure)
How it was run: (§1)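 Ca2+ flux in human iPSC-derived cardiomyocytes from 16 donors was recorded on a FLIPR Tetra for 100 s before and after a 90 min exposure at 37 °C to 0.1, 1, 10 and 100 µM (final, 0.5% DMSO). Donor-specific points of departure came from hierarchical Bayesian Hill fits to vehicle-normalised beat frequency, decay-to-rise ratio or peak frequency. A 5% change served as threshold, except for peak frequency, where it was a 95% loss.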

[2] = test system: 1516 (donor line of iPSC-derived cardiomyocytes); assay: as above
How it was run: as §1

[3] = test system: 1309; assay: POD (EC05) for increase in beat frequency (positive chronotrope) vs vehicle; higher = less potent (higher point of departure)
Protocol: (§2)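 Human iPSC-derived cardiomyocytes from 16 donors were exposed for 90 min at 37 °C to each PFAS at 0.1, 1, 10 and 100 µM in 0.5% DMSO, 384-well plates. Kinetic Ca2+ flux (FLIPR) and Hoechst nuclei counts were normalised to vehicle wells and fitted with a hierarchical Bayesian Hill model to give donor-specific PODs: EC05 for beat-rate increase or decrease and for decay-to-rise ratio increase (QT proxy), EC95 for peak-frequency loss (asystole), EC10 for total cell number loss. 0.03 µM is the lower bound.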

[4] = test system: 20032 (donor line of iPSC-derived cardiomyocytes); assay: as above
Protocol: as §2

[5] = test system: 1434 (donor line of iPSC-derived cardiomyocytes); assay: as above
Protocol: as §2

[6] = test system: 1565 (donor line of iPSC-derived cardiomyocytes); assay: as above
Protocol: as §2

[7] = test system: 20084 (donor line of iPSC-derived cardiomyocytes); assay: as above
Protocol: as §2

[8] = test system: 1392 (donor line of iPSC-derived cardiomyocytes); assay: as above
Protocol: as §2

[9] = test system: 1518 (donor line of iPSC-derived cardiomyocytes); assay: as above
Protocol: as §2

[10] = test system: 1535 (donor line of iPSC-derived cardiomyocytes); assay: as above
Protocol: as §2

[11] = test system: 1368 (donor line of iPSC-derived cardiomyocytes); assay: as above
Protocol: as §2

[12] = test system: 30145 (donor line of iPSC-derived cardiomyocytes); assay: as above
Protocol: as §2

[13] = test system: 1118 (donor line of iPSC-derived cardiomyocytes); assay: as above
Protocol: as §2

[14] = test system: 1083 (donor line of iPSC-derived cardiomyocytes); assay: as above
Protocol: as §2

[15] = test system: 1516; assay: as above
Protocol: as §2

[16] = test system: 1531 (donor line of iPSC-derived cardiomyocytes); assay: as above
Protocol: as §2

[17] = test system: 11235 (donor line of iPSC-derived cardiomyocytes); assay: as above
Protocol: as §2

[18] = test system: 30171 (donor line of iPSC-derived cardiomyocytes); assay: as above
Protocol: as §2

[19] = test system: 1518; assay: POD (EC05) for increase in Ca2+ transient decay-to-rise ratio (QT prolongation) vs vehicle; higher = less potent (higher point of departure)
How it was run: as §1

[20] = test system: 1531; assay: as above
How it was run: as §1

Structure (SMILES)	POD vs vehicle [1] [µM]	POD vs vehicle [2] [µM]	POD vs vehicle [3] [µM]	POD vs vehicle [4] [µM]	POD vs vehicle [5] [µM]	POD vs vehicle [6] [µM]	POD vs vehicle [7] [µM]	POD vs vehicle [8] [µM]	POD vs vehicle [9] [µM]	POD vs vehicle [10] [µM]	POD vs vehicle [11] [µM]	POD vs vehicle [12] [µM]	POD vs vehicle [13] [µM]	POD vs vehicle [14] [µM]	POD vs vehicle [15] [µM]	POD vs vehicle [16] [µM]	POD vs vehicle [17] [µM]	POD vs vehicle [18] [µM]	POD vs vehicle [19] [µM]	POD vs vehicle [20] [µM]
NC(=O)C(F)(F)C(F)(F)C(F)(F)C(F)(F)C(F)(F)C(F)(F)C(F)(F)F [Perfluorooctanamide]	> 100	> 100	> 100	> 100	> 100	> 100	> 100	> 100	> 100	> 100	> 100	> 100	> 100	> 100	> 100	> 100	> 100	> 100		
NC(=O)C(F)(F)C(F)(F)C(F)(F)C(F)(F)F [Nonafluoropentanamide]	> 100	> 100	> 100	> 100	> 100	> 100	> 100	> 100	> 100	> 100	> 100	> 100	> 100	> 100	> 100	> 100	> 100	> 100	0.612	
O=S(=O)([O-])C(F)(F)C(F)(F)C(F)(F)C(F)(F)F.[K+] [Potassium_perfluorobutanesulfonate]	> 100	> 100	> 100	> 100	> 100	> 100	> 100	> 100	> 100	> 100	> 100	> 100	> 100	> 100	> 100	> 100	> 100	> 100	> 100	
O=C(O)C(F)(F)C(F)(F)C(F)F [2,2,3,3,4,4-Hexafluorobutanoic_acid]	> 100		> 100	> 100	> 100	> 100	> 100	> 100	> 100	> 100	> 100		> 100		> 100	> 100	> 100	> 100		> 100
O=C(O)C(F)(F)C(F)(F)C(F)(F)C(F)(F)C(=O)O [Octafluoroadipic_acid]	> 100	> 100	> 100	> 100	> 100	> 100	> 100	> 100	> 100	> 100	> 100	> 100	> 100	> 100	> 100	> 100	> 100	> 100	> 100	
O=C(O)C(F)(F)C(F)(F)C(F)(F)OC(F)(C(F)(F)F)C(F)(F)F [Perfluoro-4-isopropoxybutanoic_acid]	> 100	> 100	> 100	> 100	> 100	> 100	> 100	> 100	> 100	> 100	> 100	> 100	> 100	> 100	> 100	> 100	> 100	> 100	> 100	
NC(=O)C(F)(F)C(F)(F)C(F)(F)F [Heptafluorobutyramide]	> 100		> 100	> 100	> 100	> 100	> 100	> 100	> 100	> 100	> 100		> 100	> 100	> 100	> 100	> 100	> 100		
OCC(F)(F)C(F)(F)C(F)(F)CO [Hexafluoroamylene_glycol]	> 100		> 100	> 100	> 100	> 100	> 100	> 100	> 100	> 100	> 100		> 100	> 100	> 100	> 100	> 100	> 100		> 100
OCC(F)(F)C(F)(F)C(F)(F)C(F)(F)C(F)(F)C(F)(F)F [6:1 Fluorotelomer alcohol]	> 100	> 100	> 100	> 100	> 100	> 100	> 100	> 100	> 100	> 100	> 100	> 100	> 100	> 100	> 100	> 100	> 100	> 100		
O=C(O)C(F)(F)OC(F)(F)C(F)(F)OC(F)(F)C(F)(F)OC(F)(F)C(F)(F)C(F)(F)C(F)(F)F [Perfluoro-3,6,9-trioxatridecanoic_acid]	> 100		> 100	> 100	> 100	> 100	> 100	> 100	> 100	> 100	> 100	> 100	> 100	> 100	> 100	> 100	> 100	> 100	> 100	
O=C([O-])C(F)(F)C(F)(F)C(F)(F)C(F)(F)C(F)(F)C(F)(F)C(F)(F)F.[NH4+] [Ammonium_perfluorooctanoate]	> 100	> 100	> 100	> 100	> 100	> 100	> 100	> 100	> 100	> 100	> 100		> 100		> 100	> 100	> 100	> 100		

Reference: the supplement of paper PMC11368000
